Test: refractive index (Na D-line) (dimensionless); xn = mol fraction of the nth substance listed
Settings: 101 kPa, Liquid, Standard Abbe refractometry

CC(C)CCl [1-chloro-2-methylpropane] + CC(C)OC(C)C
refractive index
Settings	283.15 K	288.15 K	293.15 K	298.15 K	303.15 K	308.15 K	313.15 K
x1 = 0.0549	1.37495	1.37221	1.36949	1.36663	1.36379	1.36095	1.35806
x1 = 0.091	1.3759	1.37316	1.37043	1.36757	1.36474	1.36188	1.359
x1 = 0.1977	1.37869	1.37595	1.37322	1.37038	1.36754	1.36469	1.36182
x1 = 0.2934	1.38128	1.37855	1.37581	1.37298	1.37015	1.3673	1.36444
x1 = 0.3911	1.38404	1.38131	1.37857	1.37575	1.37292	1.37008	1.36723
x1 = 0.5137	1.38762	1.38488	1.38213	1.37932	1.37649	1.37365	1.37081
x1 = 0.6034	1.39034	1.3876	1.38484	1.38205	1.37922	1.37638	1.37354
x1 = 0.6769	1.39263	1.38989	1.38713	1.38435	1.38152	1.37868	1.37585
x1 = 0.8059	1.3968	1.39405	1.39129	1.38852	1.38568	1.38285	1.38003
x1 = 0.9111	1.40038	1.39764	1.39487	1.39212	1.38928	1.38645	1.38364
x1 = 0.9646	1.40226	1.39951	1.39674	1.394	1.39116	1.38833	1.38553

CCCCCl [1-chlorobutane] + CC(C)OC(C)C
refractive index
Settings	283.15 K	288.15 K	293.15 K	298.15 K	303.15 K	308.15 K	313.15 K
x1 = 0.0466	1.37486	1.37213	1.36941	1.36656	1.36373	1.36088	1.35801
x1 = 0.0991	1.37637	1.37364	1.37092	1.36807	1.36525	1.3624	1.35953
x1 = 0.1918	1.37915	1.37643	1.37372	1.3709	1.36808	1.36524	1.3624
x1 = 0.32	1.38331	1.38059	1.37788	1.37509	1.37227	1.36944	1.36662
x1 = 0.4199	1.38643	1.38374	1.38104	1.37827	1.37544	1.37262	1.36983
x1 = 0.516	1.38968	1.38698	1.38428	1.38153	1.37872	1.37592	1.37315
x1 = 0.623	1.39338	1.39068	1.38799	1.38527	1.38246	1.37967	1.37693
x1 = 0.7154	1.39669	1.39399	1.3913	1.38859	1.3858	1.38301	1.38028
x1 = 0.8157	1.40037	1.39768	1.39499	1.39231	1.38954	1.38677	1.38407
x1 = 0.9098	1.40395	1.40125	1.39856	1.39594	1.39315	1.3904	1.38773
x1 = 0.9559	1.40572	1.40303	1.40034	1.3977	1.39493	1.39216	1.38952

CC(C)(C)Cl [2-chloro-2-methylpropane] + CC(C)OC(C)C
refractive index
Settings	283.15 K	288.15 K	293.15 K	298.15 K	303.15 K	308.15 K	313.15 K
x1 = 0.049	1.37426	1.37152	1.36878	1.36591	1.36307	1.36021	1.35731
x1 = 0.0996	1.37498	1.37223	1.36948	1.36661	1.36376	1.36089	1.35799
x1 = 0.1991	1.37645	1.37368	1.37091	1.36803	1.36516	1.36228	1.35936
x1 = 0.3212	1.37834	1.37555	1.37275	1.36986	1.36697	1.36407	1.36114
x1 = 0.4189	1.37994	1.37712	1.37431	1.3714	1.3685	1.36559	1.36263
x1 = 0.5148	1.38157	1.37874	1.3759	1.37299	1.37006	1.36713	1.36416
x1 = 0.6213	1.38348	1.38063	1.37775	1.37483	1.37189	1.36894	1.36595
x1 = 0.7152	1.38524	1.38237	1.37947	1.37654	1.37357	1.37061	1.3676
x1 = 0.8138	1.38719	1.3843	1.38137	1.37843	1.37543	1.37245	1.36942
x1 = 0.9079	1.38915	1.38623	1.38327	1.38031	1.3773	1.3743	1.37125
x1 = 0.9552	1.39016	1.38723	1.38426	1.3813	1.37827	1.37526	1.3722

CCC(C)Cl (stereo not drawn) [2-chlorobutane] + CC(C)OC(C)C
refractive index
Settings	283.15 K	288.15 K	293.15 K	298.15 K	303.15 K	308.15 K	313.15 K
x1 = 0.0519	1.37477	1.37203	1.36931	1.36644	1.36361	1.36077	1.35788
x1 = 0.0988	1.37587	1.37314	1.37041	1.36756	1.36473	1.36189	1.359
x1 = 0.2006	1.37839	1.37566	1.37294	1.37009	1.36727	1.36443	1.36155
x1 = 0.3211	1.38155	1.37883	1.3761	1.37326	1.37044	1.3676	1.36473
x1 = 0.4201	1.38427	1.38154	1.37882	1.37599	1.37317	1.37033	1.36746
x1 = 0.532	1.38745	1.38472	1.38199	1.37917	1.37636	1.37353	1.37067
x1 = 0.6244	1.39016	1.38743	1.3847	1.38189	1.37908	1.37626	1.3734
x1 = 0.726	1.39324	1.39051	1.38778	1.38498	1.38218	1.37936	1.37651
x1 = 0.8163	1.39608	1.39336	1.39063	1.38784	1.38505	1.38224	1.3794
x1 = 0.8817	1.39819	1.39548	1.39275	1.38997	1.38719	1.38438	1.38154
x1 = 0.9634	1.40097	1.39825	1.39552	1.39276	1.38997	1.38716	1.38434
